Test results reported in ChEMBL document CHEMBL1127110, “Novel polyamide inducers of HL-60 cellular differentiation” (Bioorg Med Chem Lett, 1993).
pIC50: −log10 of the molar value.

The compounds below were run on HL-60 (assay: The compound was evaluated in vitro for cytotoxicity against HL-60 cell lines). Settings: Homo sapiens.
Format: functional, cell-based

CC(=O)NCCCCN(CCCNC(C)=O)C(C)=O and CC(=O)NCCCN(CCCCN(CCCNC(C)=O)C(C)=O)C(C)=O cannot be ordered by pIC50: < 1.80 for the first, < 1.80 for the second.

Compared with CC(=O)NCCNC(=O)CCNC(C)=O, CC(=O)NCCC(=O)NCCNC(=O)CCNC(C)=O is higher in pIC50: < 1.80 for the first, 2.22 for the second. The second is the more potent here.

In the case of CC(=O)NCCCCCCNC(C)=O [HEXAMETHYLENEBISACETAMIDE], the pIC50 was 2.40.
